One experiment concerns the target Adenosine receptor A2a (Homo sapiens, UniProt P29274). The experiment can be described thus: Binding affinity against Human recombinant Adenosine A2A receptor stably transfected in CHO cells using [3H]NECA as radioligand. The format is cell-based.
Another experiment addresses T1, Adenosine receptor A3 (Homo sapiens, UniProt P0DMS8).
T1 sequence (P0DMS8 whole entry): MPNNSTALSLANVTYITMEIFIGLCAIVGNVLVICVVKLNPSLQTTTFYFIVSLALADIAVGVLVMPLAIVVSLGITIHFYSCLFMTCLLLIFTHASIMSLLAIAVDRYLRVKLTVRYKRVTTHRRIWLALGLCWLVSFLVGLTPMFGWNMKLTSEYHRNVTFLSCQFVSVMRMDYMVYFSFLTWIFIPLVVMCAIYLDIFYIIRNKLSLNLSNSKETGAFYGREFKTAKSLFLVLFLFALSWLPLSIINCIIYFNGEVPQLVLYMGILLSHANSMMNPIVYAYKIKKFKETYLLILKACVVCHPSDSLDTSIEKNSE
As to the kind of experiment: Binding affinity against Human recombinant Adenosine A3 receptor stably transfected in CHO cells using [3H]NECA as radioligand. The format is cell-based.

In the next experiment the target is T2, Adenosine receptor A2b (Homo sapiens, UniProt P29275).
T2 sequence (P29275 whole entry): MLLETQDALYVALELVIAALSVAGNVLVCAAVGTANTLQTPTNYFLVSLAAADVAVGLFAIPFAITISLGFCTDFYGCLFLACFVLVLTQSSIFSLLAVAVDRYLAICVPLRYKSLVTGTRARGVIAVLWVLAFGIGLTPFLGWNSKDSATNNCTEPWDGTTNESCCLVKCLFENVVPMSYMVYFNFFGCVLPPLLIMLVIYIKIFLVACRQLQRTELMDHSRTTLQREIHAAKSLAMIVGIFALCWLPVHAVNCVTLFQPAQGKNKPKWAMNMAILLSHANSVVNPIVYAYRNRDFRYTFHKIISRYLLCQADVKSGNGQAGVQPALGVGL
As to the kind of experiment: Receptor-stimulated activity in CHO cells stably transfected with Human recombinant Adenosine A2B receptor measuring adenylyl cyclase activity.

For a further experiment, the target named is T3, Adenosine receptor A1 (Homo sapiens, UniProt P30542).
T3 sequence (P30542 whole entry): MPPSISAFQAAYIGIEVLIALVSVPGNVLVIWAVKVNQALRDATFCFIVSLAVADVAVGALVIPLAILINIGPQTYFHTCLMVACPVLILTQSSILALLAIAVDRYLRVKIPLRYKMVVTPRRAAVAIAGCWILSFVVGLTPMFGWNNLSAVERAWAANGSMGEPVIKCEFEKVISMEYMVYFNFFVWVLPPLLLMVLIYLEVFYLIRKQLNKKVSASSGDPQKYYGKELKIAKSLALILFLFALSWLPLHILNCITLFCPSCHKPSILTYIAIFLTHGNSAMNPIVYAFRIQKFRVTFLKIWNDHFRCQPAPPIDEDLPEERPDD
The experiment can be described thus: Binding affinity against Human recombinant Adenosine A1 receptor stably transfected in CHO cells using [3H]CCPA as radioligand. The format is cell-based.

Each structure is given as a SMILES string. A value given as a limit tells only on which side of the number the result lay.

Chain of Adenosine receptor A2a (P29274 whole entry): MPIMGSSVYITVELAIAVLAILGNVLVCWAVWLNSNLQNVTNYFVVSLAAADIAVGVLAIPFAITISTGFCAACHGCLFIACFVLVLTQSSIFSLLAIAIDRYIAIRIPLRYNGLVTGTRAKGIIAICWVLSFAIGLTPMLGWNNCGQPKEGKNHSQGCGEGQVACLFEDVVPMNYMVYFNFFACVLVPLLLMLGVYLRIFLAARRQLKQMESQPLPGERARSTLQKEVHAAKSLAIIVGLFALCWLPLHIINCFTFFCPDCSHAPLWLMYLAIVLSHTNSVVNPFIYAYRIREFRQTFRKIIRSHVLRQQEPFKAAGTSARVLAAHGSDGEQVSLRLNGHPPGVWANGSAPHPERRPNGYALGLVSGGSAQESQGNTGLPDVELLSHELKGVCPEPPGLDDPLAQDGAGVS

In general, Ki refers to the equilibrium dissociation constant of an inhibitor or competing ligand from its target. The EC50 is the concentration needed to bring the measured effect to its halfway point. As for `CCNC(=O)[C@H]1O[C@@H](n2cnc3c(N)nc(C#C[C@H](O)c4ccccc4)nc32)[C@H](O)[C@@H]1O`, the inhibitory constant (Ki) at Adenosine receptor A2a came out at 39 nM; at Adenosine receptor A3 it was 5.5 nM; on Adenosine receptor A1, 1.9 nM. In addition, the EC50 on Adenosine receptor A2b amounted to 2400 nM.
With `CCCCC#Cc1nc(NC)c2ncn([C@@H]3O[C@H](CO)[C@@H](O)[C@H]3O)c2n1`, the inhibition constant (Ki) on Adenosine receptor A2a stood at 1230 nM; at Adenosine receptor A3, 1.1 nM; at Adenosine receptor A1, 327 nM. Moreover, on Adenosine receptor A2b, the EC50 came out at 100000 nM.
As for `Nc1nc(C#Cc2ccccc2)nc2c1ncn2[C@@H]1O[C@H](CO)[C@@H](O)[C@H]1O`, the figures for the Ki on Adenosine receptor A2a, at Adenosine receptor A3 and on Adenosine receptor A1 were 363 nM, 16 nM and 391 nM, respectively. Besides, at Adenosine receptor A2b, the concentration giving a half-maximal response (EC50) was over 100000 nM.
The corresponding values for `CCNc1nc(C#CC(O)c2ccccc2)nc2c1ncn2[C@@H]1O[C@H](CO)[C@@H](O)[C@H]1O` (some centres not stated) are 94 nM, 0.97 nM, 2.7 nM and 1700 nM.
For the compound `CCNc1nc(C#Cc2ccccc2)nc2c1ncn2C1O[C@H](CO)[C@@H](O)[C@H]1O` (some centres not stated), the Ki on Adenosine receptor A2a is 4450 nM; at Adenosine receptor A3, 4.9 nM; on Adenosine receptor A1, 1180 nM. Besides, at Adenosine receptor A2b, the EC50 was over 100000 nM.
The corresponding values for `CC(C)Nc1nc(C#C[C@@H](O)c2ccccc2)nc2c1ncn2[C@@H]1O[C@H](CO)[C@@H](O)[C@H]1O` are 43 nM, 1.5 nM, 1.7 nM and 960 nM.
The corresponding values for `CCNC(=O)[C@H]1O[C@@H](n2cnc3c(N)nc(C#CC(O)c4ccccc4)nc32)[C@H](O)[C@@H]1O` (mixture of isomers) are 3.1 nM, 0.42 nM, 2.7 nM and 1100 nM.
On the same counts, the results for `Nc1nc(C#CC(O)c2ccccc2)nc2c1ncn2[C@@H]1O[C@H](CO)[C@@H](O)[C@H]1O` (some centres not stated) are 7 nM, 3.3 nM, 0.67 nM and 2400 nM.
On to `CCCCC#Cc1nc(N)c2ncn([C@@H]3O[C@H](CO)[C@@H](O)[C@H]3O)c2n1`, for which the inhibition constant Ki at Adenosine receptor A3 was determined as 4.7 nM. Moreover, the 50% effective concentration (EC50) at Adenosine receptor A2b was 100000 nM.
Turning to `CCCCC#Cc1nc(NC(C)C)c2ncn([C@@H]3O[C@H](CO)[C@@H](O)[C@H]3O)c2n1`, the inhibition constant (Ki) amounted to 196 nM on Adenosine receptor A2a, 9.7 nM at Adenosine receptor A3 and 43 nM on Adenosine receptor A1. Further, the EC50 on Adenosine receptor A2b is 100000 nM.
The corresponding values for `CCNC(=O)[C@H]1O[C@@H](n2cnc3c(N)nc(C#Cc4ccccc4)nc32)[C@H](O)[C@@H]1O` are 620 nM, 6.2 nM, 560 nM and over 100000 nM.
Consider `CC(C)Nc1nc(C#C[C@H](O)c2ccccc2)nc2c1ncn2[C@@H]1O[C@H](CO)[C@@H](O)[C@H]1O`, for which the figures for the Ki on Adenosine receptor A2a, at Adenosine receptor A3 and at Adenosine receptor A1 were 324 nM, 4.9 nM and 1.1 nM, respectively. At Adenosine receptor A2b, the EC50 came to 8900 nM.
On the same counts, the results for `CCNc1nc(C#C[C@@H](O)c2ccccc2)nc2c1ncn2[C@@H]1O[C@H](CO)[C@@H](O)[C@H]1O` are 64 nM, 0.2 nM, 3.4 nM and 730 nM.
The corresponding values for `CC(C)Nc1nc(C#Cc2ccccc2)nc2c1ncn2[C@@H]1O[C@H](CO)[C@@H](O)[C@H]1O` are 1100 nM, 17 nM, 429 nM and over 100000 nM.
Turning to `CC(C)Nc1nc(C#CC(O)c2ccccc2)nc2c1ncn2[C@@H]1O[C@H](CO)[C@@H](O)[C@H]1O` (some centres not stated), the Ki on Adenosine receptor A2a came out at 96 nM; at Adenosine receptor A3, 2.3 nM; on Adenosine receptor A1, 1.5 nM. The EC50 on Adenosine receptor A2b is 6100 nM.
The corresponding values for `CCCCC#Cc1nc(NCC)c2ncn([C@@H]3O[C@H](CO)[C@@H](O)[C@H]3O)c2n1` are 267 nM, 2.3 nM, 138 nM and 100000 nM.
The corresponding values for `CNc1nc(C#C[C@@H](O)c2ccccc2)nc2c1ncn2[C@@H]1O[C@H](CO)[C@@H](O)[C@H]1O` are 163 nM, 0.53 nM, 9.6 nM and 2600 nM.
On the same counts, the results for `CCNC(=O)[C@H]1O[C@@H](n2cnc3c(N)nc(C#C[C@@H](O)c4ccccc4)nc32)[C@H](O)[C@@H]1O` are 2 nM, 0.75 nM, 2.1 nM and 220 nM.
For `CNc1nc(C#C[C@H](O)c2ccccc2)nc2c1ncn2[C@@H]1O[C@H](CO)[C@@H](O)[C@H]1O`, the results for the Ki on Adenosine receptor A2a, at Adenosine receptor A3 and on Adenosine receptor A1 were 1560 nM, 1.2 nM and 7.1 nM, respectively. The EC50 on Adenosine receptor A2b amounted to 100000 nM.
As to `CC(C)(C)OC(=O)C1CCCN1C[C@@H](O)[C@H](Cc1ccccc1)NC(=O)[C@H](CC(N)=O)NC(=O)OCc1ccccc1` (some centres not stated), the figures for the Ki on Adenosine receptor A3 and at Adenosine receptor A1 were 2.4 nM and 60 nM, respectively. Also, the EC50 on Adenosine receptor A2b was 6100 nM.
Take `CCNc1nc(C#C[C@H](O)c2ccccc2)nc2c1ncn2[C@@H]1O[C@H](CO)[C@@H](O)[C@H]1O`: the Ki at Adenosine receptor A2a worked out at 1180 nM; on Adenosine receptor A3, 1.4 nM; at Adenosine receptor A1, 2.2 nM. For the same compound, the EC50 on Adenosine receptor A2b was determined as 9100 nM.
On the same counts, the results for `Nc1nc(C#C[C@@H](O)c2ccccc2)nc2c1ncn2[C@@H]1O[C@H](CO)[C@@H](O)[C@H]1O` are 1.8 nM, 1.4 nM, 0.67 nM and 920 nM.
On the same counts, the results for `CNc1nc(C#Cc2ccccc2)nc2c1ncn2[C@@H]1O[C@H](CO)[C@@H](O)[C@H]1O` are 8530 nM, 3.4 nM, 1690 nM and 100000 nM.
The corresponding values for `Nc1nc(C#C[C@H](O)c2ccccc2)nc2c1ncn2[C@@H]1O[C@H](CO)[C@@H](O)[C@H]1O` are 29 nM, 5 nM, 0.44 nM and 6200 nM.
Turning to `CNc1nc(C#CC(O)c2ccccc2)nc2c1ncn2[C@@H]1O[C@H](CO)[C@@H](O)[C@H]1O` (some centres not stated), the results for the Ki at Adenosine receptor A2a, at Adenosine receptor A3 and at Adenosine receptor A1 were 273 nM, 0.76 nM and 8.4 nM, respectively. Besides, at Adenosine receptor A2b, the concentration giving a half-maximal response (EC50) is 2700 nM.

For the origin of these results see ChEMBL document CHEMBL1135517, “N(6)-alkyl-2-alkynyl derivatives of adenosine as potent and selective agonists at the human adenosine A(3) receptor and a starting point for searching A(2B) ligands” (J Med Chem, 2002).
